For six compounds, T/C results are on record in PubChem BioAssay AID210 (DTP/NCI, 2004).

The assay concerns CD2F1 mice, ip Colon 26 adenocarcinoma, median survival T/C. Nature of the assay: NCI In Vivo Anticancer Drug Screen. Data for tumor model Colon 26 Adenocarcinoma (intraperitoneal) in CD2F1 (CDF1) mice. The conditions noted are these: endpoint: median survival time, higher = longer survival. The method, then: The antitumor activity of compounds was measured in mice bearing transplantable tumors. Survival or tumor size were measured and the results are expressed as the measurement made in the treated group (T) divided by the measurement made in the vehicle treated control group (C). The tumor model used in this assay is Colon 26 Adenocarcinoma (intraperitoneal) in CD2F1 (CDF1) mice

Several values for one entry are separate records, joined by “and”; a condition that tells them apart may be missing. Identical values can stand only once. Toxic doses and inconclusive results are not listed.

For the compound `CCOC(=O)CNC(=O)CCCCSc1ncnc2nc[nH]c12`, the T/C is, setting by setting: (dose: 400.0 mg/kg/injection, schedule: Q04DX003 (ip), vehicle: saline with Tween-80) 104 % of control; (dose: 800.0 mg/kg/injection, schedule: Q04DX003 (ip), vehicle: saline with Tween-80) 97 % of control; (dose: 1600.0 mg/kg/injection, schedule: Q04DX003 (ip), vehicle: saline with Tween-80) 88 % of control.

`CO[C@@]12[C@H](COC(N)=O)C3=C(C(=O)C(C)=C(N)C3=O)N1C[C@@H]1N[C@@H]12`: the T/C is, setting by setting: (dose: 1.0 mg/kg/injection, schedule: Q01DX004 (ip), vehicle: saline) 122 % of control; (dose: 1.0 mg/kg/injection, schedule: Q03DX002 (ip), vehicle: saline) 120 % of control; (dose: 2.0 mg/kg/injection, schedule: Q01DX005 (ip), vehicle: saline) 96 % of control; (dose: 2.0 mg/kg/injection, schedule: Q03DX002 (ip), vehicle: saline) 113 % of control; (dose: 2.0 mg/kg/injection, schedule: Q07DX003 (ip), vehicle: Klucel (hydroxypropylcellulose) (HPC)) 195 % of control; (dose: 2.0 mg/kg/injection, schedule: Q07DX003 (ip), vehicle: saline) 152 % of control. Besides, the T/C runs as follows: (dose: 2.9 mg/kg/injection, schedule: Q07DX003 (ip), vehicle: Klucel (hydroxypropylcellulose) (HPC)) 183 % of control; (dose: 2.9 mg/kg/injection, schedule: Q07DX003 (ip), vehicle: saline) 169 % of control; (dose: 3.0 mg/kg/injection, schedule: Q01DX004 (ip), vehicle: saline) 114 % of control; (dose: 3.0 mg/kg/injection, schedule: Q01DX005 (ip), vehicle: saline) 110 % of control; (dose: 3.0 mg/kg/injection, schedule: Q03DX002 (ip), vehicle: saline) 117 % of control; (dose: 4.2 mg/kg/injection, schedule: Q07DX003 (ip), vehicle: Klucel (hydroxypropylcellulose) (HPC)) 223 % of control. Further, the T/C reads like this: (dose: 4.2 mg/kg/injection, schedule: Q07DX003 (ip), vehicle: saline) 190 % of control; (dose: 4.5 mg/kg/injection, schedule: Q01DX005 (ip), vehicle: saline) 114 % of control; (dose: 4.5 mg/kg/injection, schedule: Q03DX002 (ip), vehicle: saline) 110 % of control; (dose: 6.0 mg/kg/injection, schedule: Q01DX005 (ip), vehicle: saline) 121 % of control; (dose: 6.0 mg/kg/injection, schedule: Q07DX003 (ip), vehicle: Klucel (hydroxypropylcellulose) (HPC)) 87 % of control; (dose: 6.0 mg/kg/injection, schedule: Q07DX003 (ip), vehicle: saline) 231 % of control.

Turning to `Nc1nncs1`, the T/C reads like this: (dose: 50.0 mg/kg/injection, schedule: Q01DX005 (ip), vehicle: saline) 112 % of control; (dose: 50.0 mg/kg/injection, schedule: Q04DX003 (ip), vehicle: saline) 119 % of control; (dose: 100.0 mg/kg/injection, schedule: Q01DX005 (ip), vehicle: saline) 120 % of control.

With `CNc1nc2c(N)ncnc2n1C1OC(CO)C(O)C1O` (stereo unspecified), the T/C reads like this: (dose: 0.78 mg/kg/injection, schedule: Q04DX002 (ip), vehicle: saline) 92 % of control; (dose: 1.56 mg/kg/injection, schedule: Q04DX002 (ip), vehicle: saline) 93 % of control; (dose: 3.13 mg/kg/injection, schedule: Q04DX002 (ip), vehicle: saline) 92 % of control; (dose: 6.25 mg/kg/injection, schedule: Q04DX002 (ip), vehicle: saline) 96 % of control; (dose: 12.5 mg/kg/injection, schedule: Q04DX002 (ip), vehicle: saline) 102 % of control; (dose: 25.0 mg/kg/injection, schedule: Q04DX002 (ip), vehicle: saline) 96 % of control.

Regarding `O=C(O)C1(C(=O)O)CCC1.[NH2-].[NH2-].[Pt+2]`, the T/C reads like this: (dose: 5.85 mg/kg/injection, schedule: Q04DX003 (iv), vehicle: saline) 96 % of control; (dose: 8.78 mg/kg/injection, schedule: Q04DX003 (iv), vehicle: saline) 102 % of control; (dose: 10.0 mg/kg/injection, schedule: Q01DX004 (ip), vehicle: saline) 110 % of control; (dose: 11.7 mg/kg/injection, schedule: Q01DX001 (ip), vehicle: saline) 105 % of control; (dose: 13.2 mg/kg/injection, schedule: Q04DX003 (iv), vehicle: saline) 105 % of control; (dose: 17.6 mg/kg/injection, schedule: Q01DX001 (ip), vehicle: saline) 102 % of control. The T/C runs as follows: (dose: 17.6 mg/kg/injection, schedule: Q01DX001 (iv), vehicle: saline) 91 % of control; (dose: 19.8 mg/kg/injection, schedule: Q04DX003 (ip), vehicle: saline) 171 % of control; (dose: 19.8 mg/kg/injection, schedule: Q04DX003 (iv), vehicle: saline) 117 % of control; (dose: 20.0 mg/kg/injection, schedule: Q01DX004 (ip), vehicle: saline) 225 % of control; (dose: 25.0 mg/kg/injection, schedule: Q04DX003 (ip), vehicle: dextrose) 203 % of control; (dose: 26.3 mg/kg/injection, schedule: Q01DX001 (ip), vehicle: saline) 109 % of control and 217 % of control. Further, the T/C (dose: 26.3 mg/kg/injection, schedule: Q01DX001 (iv), vehicle: saline) was 118 % of control and 94 % of control; the T/C (dose: 29.6 mg/kg/injection, schedule: Q04DX003 (ip), vehicle: saline) is 225 % of control; the T/C (dose: 29.6 mg/kg/injection, schedule: Q04DX003 (iv), vehicle: saline) was 162 % of control; the T/C (dose: 30.0 mg/kg/injection, schedule: Q04DX004 (iv), vehicle: other) is 154 % of control; the T/C (dose: 33.0 mg/kg/injection, schedule: Q04DX002 (iv), vehicle: other) is 109 % of control; the T/C (dose: 39.5 mg/kg/injection, schedule: Q01DX001 (ip), vehicle: saline) was 168 % of control. The T/C by setting is: (dose: 39.5 mg/kg/injection, schedule: Q01DX001 (iv), vehicle: saline) 95 % of control; (dose: 40.0 mg/kg/injection, schedule: Q01DX004 (ip), vehicle: saline) 380 % of control; (dose: 44.0 mg/kg/injection, schedule: Q04DX004 (iv), vehicle: other) 226 % of control; (dose: 44.4 mg/kg/injection, schedule: Q04DX003 (ip), vehicle: saline) 257 % of control; (dose: 44.4 mg/kg/injection, schedule: Q04DX003 (iv), vehicle: saline) 188 % of control; (dose: 50.0 mg/kg/injection, schedule: Q04DX003 (ip), vehicle: dextrose) 228 % of control. For the same compound, the T/C is 217 % of control (dose: 59.3 mg/kg/injection, schedule: Q01DX001 (ip), vehicle: saline); 103 % of control and 118 % of control (dose: 59.3 mg/kg/injection, schedule: Q01DX001 (iv), vehicle: saline); 324 % of control (dose: 60.0 mg/kg/injection, schedule: Q01DX004 (ip), vehicle: saline); 253 % of control (dose: 65.0 mg/kg/injection, schedule: Q04DX004 (iv), vehicle: other); 151 % of control (dose: 66.7 mg/kg/injection, schedule: Q04DX003 (ip), vehicle: saline); 183 % of control (dose: 87.0 mg/kg/injection, schedule: Q04DX002 (iv), vehicle: other). Besides, the T/C (dose: 88.9 mg/kg/injection, schedule: Q01DX001 (ip), vehicle: saline) is 217 % of control and 257 % of control; the T/C (dose: 88.9 mg/kg/injection, schedule: Q01DX001 (iv), vehicle: saline) is 102 % of control; the T/C (dose: 100.0 mg/kg/injection, schedule: Q04DX003 (ip), vehicle: saline) was 257 % of control; the T/C (dose: 100.0 mg/kg/injection, schedule: Q04DX003 (iv), vehicle: saline) is 168 % of control; the T/C (dose: 133.0 mg/kg/injection, schedule: Q01DX001 (ip), vehicle: saline) was 217 % of control and 257 % of control; the T/C (dose: 133.0 mg/kg/injection, schedule: Q01DX001 (iv), vehicle: saline) was 121 % of control and 257 % of control. Moreover, the T/C (dose: 200.0 mg/kg/injection, schedule: Q01DX001 (ip), vehicle: saline) is 217 % of control and 257 % of control.

On to `CN(C)C=O`, for which the T/C is, setting by setting: (dose: 100.0 mg/kg/injection, schedule: Q04DX002 (ip), vehicle: saline) 93 % of control; (dose: 400.0 mg/kg/injection, schedule: Q04DX002 (ip), vehicle: saline) 90 % of control; (dose: 800.0 mg/kg/injection, schedule: Q04DX002 (ip), vehicle: saline) 168 % of control; (dose: 1600.0 mg/kg/injection, schedule: Q04DX002 (ip), vehicle: saline) 93 % of control.
